Literature values, collected in US12295943B2 (Closed Loop Medicine Ltd., priority 2023, dated 2025).
Where two headings read alike, the source gives them in different places.

Columns and labels:
[1] = in vivo
[2] = not given; remark: listed apart in the source
[3] = not given; remark: listed apart in the source
[4] = tested on: patients with nonvalvular AF
[5] = not given; remark: listed apart in the source
[6] = tested on: metabolic enzymes or transport mechanisms; details: in vitro
CYP3A4 = CYP3A4 (Homo sapiens, UniProt P08684); details: CYP3A4, linked with P-glycoprotein transporter
[7] = for trough plasma level range: steady state
stroke = details: AF patients
[8] = high body weight (≥120 kg) vs reference group
[9] = low body weight (≤50 kg) vs reference group (65-85 kg)

Chain of CYP3A4 (P08684 whole entry): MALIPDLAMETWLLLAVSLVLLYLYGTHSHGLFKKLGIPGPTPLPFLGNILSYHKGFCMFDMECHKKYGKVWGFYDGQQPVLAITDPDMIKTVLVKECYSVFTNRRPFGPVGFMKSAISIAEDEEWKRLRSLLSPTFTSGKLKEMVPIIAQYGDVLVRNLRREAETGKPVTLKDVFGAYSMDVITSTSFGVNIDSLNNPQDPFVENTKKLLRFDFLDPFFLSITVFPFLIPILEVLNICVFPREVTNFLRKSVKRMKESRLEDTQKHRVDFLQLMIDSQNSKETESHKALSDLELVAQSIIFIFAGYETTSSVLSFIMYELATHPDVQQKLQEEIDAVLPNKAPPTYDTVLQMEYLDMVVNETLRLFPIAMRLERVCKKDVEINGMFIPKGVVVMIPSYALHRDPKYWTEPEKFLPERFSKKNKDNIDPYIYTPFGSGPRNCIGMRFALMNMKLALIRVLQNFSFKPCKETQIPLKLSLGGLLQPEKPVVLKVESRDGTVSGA

## [H]/N=C(/N)c1ccc(NCc2nc3cc(C(=O)N(CCC(=O)O)c4ccccn4)ccc3n2C)cc1 [dabigatran]
human, in vivo
  share cleared through the kidneys: ~80%

## COc1ccc(-n2nc(C(N)=O)c3c2C(=O)N(c2ccc(N4CCCCC4=O)cc2)CC3)cc1 [Apixaban]
[1]
  principle side effect: increased bleeding tendency, with undesired haemorrhage, sometimes fatal
[2]; with Clarithromycin
  increase in mean apixaban AUC 0-∞: 1.6 fold
  increase in mean apixaban Cmax: 1.3 fold
[2]; with Clarithromycin (Table 2)
  increase in AUC: ~50% increase in Cmax and AUC
  increase in Cmax: ~50% increase in Cmax and AUC
[2]; with Diltiazem
  increase in AUC: ~40% increase in AUC
[2]; with Ketaconazole or other CYP 3A4/PgP inhibitors
  increase in AUC: ~100% increase in AUC
[2]; with Ketoconazole (CYP 3A4 inhibitor)
  increase in exposure (drug levels): ~2 fold
[2]; with Riampin or other CYP 3A4 inducers
  decrease in AUC: ~50% decrease in AUC
[2]; with rifampicin
  decrease in exposure: ~50%
[3]; age coefficient on non-renal clearance, AGEREF 60 years
  AGEP: 0.267
[3]; apparent central volume of distribution
  VC/F: 32.1 L
[3]; apparent inter-compartmental clearance
  Q/F: 1.62 L/h
[3]; apparent peripheral volume of distribution
  VP/F: 19.8 L
[3]; non-renal component of apparent clearance
  CLNR/F (Ref): 2.52 L/h
[3]; power coefficients for CrCL versus CL/F
  θ1, θ2: 1.0
[3]; shape parameter of dose versus relative bioavailability
  ┌: 0.853
[3]; weight coefficient on Vc/F, WTref 85.0 kg
  WTP: 0.523
[4]
  efficacy compared with warfarin: superior to warfarin
  risk of intracranial bleeds compared with warfarin: small reduction
[5]; [8]
  lower apixaban AUC0-∞: ~23%
  lower apixaban Cmax: approximately 31%
[5]; [9]
  higher AUC0-∞: ~20%
  higher maximum apixaban plasma concentration (Cmax): approximately 27%
[6]
  inhibition or induction of metabolic enzymes or transport mechanisms: does not inhibit or induce
CYP3A4
  substrate status: substrate primarily for CYP3A4
[7]; 2.5 mg dose
  trough plasma level range: 20 to 180 ng/mL
[7]; 5 mg dose
  trough plasma level range: 10 to 310 ng/mL
[7]; in vivo
  variability in drug plasma levels across the population for a given dose: 6-10 FOLD
Evening versus morning
  observed drug plasma levels lower in the evening than in the morning: ~50%
Healthy human volunteers
  coefficient of variance for AUC of the plasma level time profile: ~30%
  coefficient of variance for Cmax: ~30%
human, in vivo
  direct intestinal excretion into the faeces, unchanged drug: 34%
  dose excreted by renal route: 20-25%
  elimination via metabolism: ~20%
  renal clearance: 15 mL/min
  renal clearance as share of GFR: ~12 % of GFR
  total body clearance: 50 mL/min
  total body clearance as share of liver blood flow: ~3 % liver blood flow
human, in vivo, po
  absolute oral bioavailability: ~50%
Iv or oral solution
  half-life after iv or oral solution: ~5 h
oral, without food
  time of maximum concentration after oral administration: 3 to 4 h
  time of maximum concentration, range: 1 to 6 h
Repeated administration
  increase in levels at steady state compared to the first dose: ~65%
  time to steady state after repeated administration: ≤ 3 days
With food
  delay of maximum concentration by food: ~1 h
  time of maximum concentration with food, range: 1 to 9 h

## CC(=O)CC(c1ccccc1)c1c(O)c2ccccc2oc1=O (stereo not shown) [warfarin]
stroke
  reduction of stroke: about 60%
